We go through 14 compounds from patent publication US4643990A, “N-acyl peptide, processes for their preparation and pharmaceutical compositions thereof” (Fujisawa Pharmaceutical Co., Ltd., priority 1982, dated 1987).

Test [1] relates to complement serum (guinea pig complement). As to the kind of experiment: Anticomplementary activity (inhibition of complement hemolysis of sensitized erythrocytes). Format: biochemical. Particulars: concentration inhibiting hemolysis of sensitized erythrocytes by 50%, 37° C., OD541. The method, then: The anticomplementary activity of the test compound was measured according to the test method as described in Experimental Immunochemistry, edited by E. A. Kabat and M. M. Mayer, 2nd ed., Springfield, III: C. C. Thomas (1961) pages 133-240.
A mixture of 1 ml of a 5-fold diluted solution of a Veronal buffer solution containing 1.5×10^-4 M Ca^2+ and 5×10^-4 M Mg^2+ and isotonic gelatin, 1.5 ml of complement serum (guinea pig complement) diluted 400 times with a physiological saline solution and 0.05 ml of a solution of a test compound (in this case, a test compound was dissolved in a physiological saline solution) was incubated at 37° C. for 30 minutes. To the said mixture there was added 0.4 ml of sensitized erythrocytes suspension containing 5×10^8 cells/ml and said mixture was incubated at 37° C. further for 60 minutes. After the incubation, the mixture was centrifuged in 3,000 rpm at 4° C. for 10 minutes.
The results are expressed in Table 1 as the concentration of each drugs inhibiting the hemolysis activity by 50% (IC50).

The test system of test [2] is blood clot from diluted fresh rabbit blood (urokinase, bovine thrombin). Kind of test: Fibrinolytic activity (modified diluted whole blood clot lysis time method). The class given is biochemical. The following applies: test compound 300 μg/ml; time for complete lysis of diluted rabbit blood clot with urokinase, 37° C. As for the experimental part: The enhancement of the fibrinolytic activity of the test compounds was measured according to the modified diluted whole blood clot lysis time method described in
G. R. Fearnley, G. V. Balmforth, E. Fearnley: Clin. Sci. 16, 645-650 (1957) I. S. Chohan et al: Thrombos. Diathes. Haemorrh. 33, 226 (1975) and I. M. Nilsson et al: Handbook of Experimental Pharmacology 46, 110.
Fresh rabbit blood was diluted 20 times with 1/15M phosphate buffer (pH 7.4). A mixture of 400 μl of the diluted blood solution and 50 μl of a test compound (300 μg/ml) was incubated at 37° C. for 30 minutes. To the mixture were added 50 μl of urokinase solution (100 IU/ml) and 50 μl of bovine thrombin (100 N.I.H. u/ml). The clot produced in tubes was incubated at 37° C. for various periods of time. At the end of each incubation interval (15 minutes interval), 2.5 ml of distilled water was added to lyse erythrocytes released from clotted blood and absorbance (OD541) of the supernatant separated by centrifugation (3,000 rpm for 10 minutes) from the reaction mixture was measured. The fibrinolytic activity of the test compound was determined by the time in minutes needed for the complete lysis of the blood clot.
In the absence of a test compound, it took more than 2 hours to lyse blood clot in the above condition. However, blood clot was lysed in the presence of test compounds after 15 minutes (symbol: ++) and 45 minutes (symbol: +) incubation, respectively. Samples which were incapable of lysing blood clot within 1 hour incubation were expressed as symbol (-).

Consider `CCCCCCCCCCCCCCCC(=O)OC(CCCCCCCCCCCCCCC)CC(=O)N[C@@H](CCC(=O)O)C(=O)N[C@@H](CCC(=O)O)C(=O)O` (stereo partly drawn) [19 (2), N-[N-(3-hexadecanoyloxyoctadecanoyl)-L-glutamyl]-L-glutamic acid], for which, in test [1], the “Anticomplementary activity (IC50)” value amounted to 5.28 µg/mL. Take `CCCCCCCCCCCCCCCC(=O)OC(CCCCCCCCCCCCCCC)CC(=O)N[C@H](C(=O)N[C@@H](CCC(=O)O)C(=O)O)C(C)C` (stereo partly drawn) [Example 3, N-[N-(3-hexadecanoyloxyoctadecanoyl)-L-valyl]-L-glutamic acid]: the “Anticomplementary activity (IC50)” value in test [1] amounted to 1.89 µg/mL. In addition, the Fibrinolytic activity result in test [2] was “++ (blood clot was lysed in the presence of test compounds after 15 minutes (symbol: ++))”. `CCCCCCCCCCCCCCCC(=O)OC(CCCCCCCCCCCCCC)C(=O)N[C@H](C(=O)N[C@@H](CCC(=O)O)C(=O)O)C(C)C` (stereo partly drawn) [Example 6, N-[N-(2-hexadecanoyloxyhexadecanoyl)-L-valyl]-L-glutamic acid]: in test [1], the “Anticomplementary activity (IC50)” value was 0.49 µg/mL. Moreover, the Fibrinolytic activity result in test [2] is “+ (45 minutes (symbol: +) incubation)”. In the same order, the values of `CCCCCCCCC=CCCCCCCCC(=O)OC(CCCCCCCC=CCCCCCCCC)CC(=O)N[C@H](C(=O)N[C@@H](CCC(=O)O)C(=O)O)C(C)C` (stereo partly drawn) [Example 7, N-[N-[3-(9-octadecenoyloxy)-11-eicosenoyl]-L-valyl]-L-glutamic acid] are 3.4 µg/mL and “+ (45 minutes (symbol: +) incubation)”. On to `CCCCCCCCCCCCCCCC(=O)OC(CCCCCCCCCCCCCCC)CC(=O)N[C@H](C(=O)N[C@@H](CCC(=O)O)C(=O)O)[C@@H](C)O` (stereo partly drawn) [Example 8 (2), N-[N-(3-hexadecanoyloxyoctadecanoyl)-L-threonyl]-L-glutamic acid], for which the “Anticomplementary activity (IC50)” value in test [1] was determined as 0.67 µg/mL. Further, the Fibrinolytic activity entry in test [2] was “++ (blood clot was lysed in the presence of test compounds after 15 minutes (symbol: ++))”.

`CCCCCCCCCCCCCCCC(=O)OC(CCCCCCCCCCCCCCC)CC(=O)NCCC(=O)N[C@H](C(=O)N[C@@H](CCC(=O)O)C(=O)O)[C@@H](C)O` (stereo partly drawn) [Example 10, N-[N-[N-(3-hexadecanoyloxyoctadecanoyl)-β-alanyl]-L-threonyl]-L-glutamic acid]: in test [1], the “Anticomplementary activity (IC50)” value was found to be 1.00 µg/mL. In test [2], the Fibrinolytic activity result is reported as “+ (45 minutes (symbol: +) incubation)”.

As to `CCCCCCCCCCCCCCCC(=O)OC(CCCCCCCCCCCCCCC)CC(=O)NCCCCC(=O)N[C@@H](CCC(=O)O)C(=O)O` (stereo partly drawn) [Example 14, N-[N-(3-hexadecanoyloxyoctadecanoyl)-5-aminopentanoyl]-L-glutamic acid], the “Anticomplementary activity (IC50)” value in test [1] worked out at 0.52 µg/mL. The same measure, in the same setting: to `CCCCCCCCCCCCCCCC(=O)OC(CCCCCCCCCCCCCCC)CC(=O)NCCC(=O)N[C@@H](CC(=O)O)C(=O)O` (stereo partly drawn) [Example 18, N-[N-(3-hexadecanoyloxyoctadecanoyl)-β-alanyl]-L-aspartic acid] belongs 0.34 µg/mL. With `CCCCCCCCCCCCCCCC(=O)OC(CCCCCCCCCCCCCCC)CC(=O)N[C@@H](CCCCN)C(=O)N[C@@H](CCC(=O)O)C(=O)O` (stereo partly drawn) [Example 21, N-[N-(3-hexadecanoyloxyoctadecanoyl)-L-lysyl]-L-glutamic acid], the Fibrinolytic activity result in test [2] is “+ (45 minutes (symbol: +) incubation)”. For `Br.Br.CCCCCCCCCCCCCCCC(=O)OC(CCCCCCCCCCCCCCC)CC(=O)N[C@@H](CCCCN)C(=O)N[C@@H](CCCCN)C(=O)O` (stereo partly drawn) [Example 36, N-[N-(3-hexadecanoyloxyoctadecanoyl)-L-lysyl]-L-lysine dihydrogen bromide], the “Anticomplementary activity (IC50)” value in test [1] is 9.5 µg/mL.

On to `CCCCCCCCCCCCCCCC(=O)OC(CCCCCCCCCCCCCCC)CC(=O)N[C@H](C(=O)NCCS(=O)(=O)O)C(C)C` (stereo partly drawn) [Example 37, N-[N-(3-hexadecanoyloxyoctadecanoyl)-L-valyl]taurine], for which the “Anticomplementary activity (IC50)” value in test [1] was 0.13 µg/mL. In addition, the Fibrinolytic activity result in test [2] is reported as “+ (45 minutes (symbol: +) incubation)”. Consider `CCCCCCCCCCCCCCCC(=O)OC(CCCCCCCCCCCCCCC)CC(=O)N[C@@H](CCC(=O)O)C(=O)N[C@H](C(=O)O)[C@@H](C)O` (stereo partly drawn) [Example 39, N-[N-(3-hexadecanoyloxyoctadecanoyl)-L-glutamyl]-L-threonine], for which, in test [1], the “Anticomplementary activity (IC50)” value is 1.67 µg/mL.

Regarding `CCCCCCCCCCCCCCCC(=O)OC(CCCCCCCCCCCCCCC)CC(=O)N[C@H](C(=O)N[C@H](C(=O)O)[C@@H](C)O)[C@@H](C)O` (stereo partly drawn) [Example 42, N-[N-(3-hexadecanoyloxyoctadecanoyl)-L-threonyl]-L-threonine], the “Anticomplementary activity (IC50)” value in test [1] is 0.06 µg/mL. Further, the Fibrinolytic activity entry in test [2] is “++ (blood clot was lysed in the presence of test compounds after 15 minutes (symbol: ++))”. As to `CCCCCCCCCCCCCCCC(=O)OC(CCCCCCCCCCCCCCC)CC(=O)N[C@H](C(=O)N[C@@H](CCC(=O)OC)C(=O)OC)[C@@H](C)O` (stereo partly drawn) [Example 43, dimethyl N-[N-(3-hexadecanoyloxyoctadecanoyl)-L-threonyl]-L-glutamate], in test [1], the “Anticomplementary activity (IC50)” value came out at 30 µg/mL.
